Holding throughout (format): cell-based, Escherichia coli
The test system of assay [1] is E. coli BT3/pACYCSP+pTVGMP strain. As to the kind of experiment: Growth of E. coli BT3/pACYCSP+pTVGMP (variant soybean PPO) with herbicidal compound. The settings on record: 18 hours culture, Table 7. From the text: According to the description of Gibson, L. C. D. et al., Proc. Natl. Acad. Sci. USA, 92; p 1941 (1995), the DNA fragment containing bchH gene prepared in Example 1 was digested with the restriction enzymes NdeI and BglII. The resultant DNA fragment was inserted between NdeI restriction site and BamHI restriction site of expression vector pET11a (manufactured by Stratagene) to obtain plasmid pETBCH (FIG. 1). This plasmid pETBCH was introduced into E. coli BL21(DE3) strain competent cells (manufactured by Stratagene) according to the manual attached to the competent cells to obtain E. coli BL21(DE3)/pETBCH strain. The strain was inoculated into 1.5 ml LB liquid culture medium (1% tryptone, 0.5% yeast extract, 0.5% NaCl) containing 100 μg/ml ampicillin in a tube (14×10 mm), and the tube was covered with aluminum foil (hereinafter referred to as dark conditions), cultured with shaking at 37° C. under light of fluorescent lamp (about 8000 lux). When the absorbance at 600 nm of the liquid culture medium became about 0.6, isopropyl β-D-thiogalactopyranoside (IPTG) was added to the liquid culture medium so that the final concentration was 0.4 mM, and the culture was continued for about additional 20 hours. […] In contrast to this, when E. coli BL21(DE3)/pETBCH strain was cultured according to the same manner (with IPTG) except that the tube was not covered with aluminum foil (hereinafter referred to as light conditions), E. coli grew and turned red as above.
Plasmids pTVGMP and pTV118N prepared in Example 11 were introduced into E. coli BT3/pACYCSP strain prepared in Example 3 respectively according to the method described in Flanahan, D. J., Mol. Biol., 166; p 557 (1983). E. coli BT3/pACYCSP+pTVGMP strain bearing plasmids pACYCSP and pTVGMP, and E. coli BT3/pACYCSP+pTV118N strain bearing plasmids pACYCSP and pTV118N were obtained by culturing the above strains in YPT medium containing 100 μg/ml ampicillin, 15 μg/ml chloramphenicol and 10 μg/ml kanamycin.
These E. coli strains were inoculated into YPT medium containing 10 or 1 ppm of PPO inhibitory-type herbicidal compound represented by Structure 8, 100 (ig/ml ampicillin, 15 μg/ml chloramphenicol, 10 μg/ml kanamycin, 10 μg/ml hemin and 50 μg/ml aminolevulinic acid, cultured under dark conditions or light conditions according to the same manner as in Example 2. Then, 18 hours after initiation of culture, the absorbance of liquid culture medium was measured at 600 nm. By taking the absorbance of the medium without the herbicidal compound as 1, the relative value of the absorbance of the medium containing the herbicidal compound was calculated.

The subject of assay [2] is E. coli BT3/pACYCSP+pHASYS strain. As to the kind of experiment: Growth of E. coli BT3/pACYCSP+pHASYS with herbicidal compound. To be noted: 1 ppm, 18 hours culture, Table 15. An excerpt: (§1) According to the description of Gibson, L. C. D. et al., Proc. Natl. Acad. Sci. USA, 92; p 1941 (1995), the DNA fragment containing bchH gene prepared in Example 1 was digested with the restriction enzymes NdeI and BglII. The resultant DNA fragment was inserted between NdeI restriction site and BamHI restriction site of expression vector pET11a (manufactured by Stratagene) to obtain plasmid pETBCH (FIG. 1). This plasmid pETBCH was introduced into E. coli BL21(DE3) strain competent cells (manufactured by Stratagene) according to the manual attached to the competent cells to obtain E. coli BL21(DE3)/pETBCH strain. The strain was inoculated into 1.5 ml LB liquid culture medium (1% tryptone, 0.5% yeast extract, 0.5% NaCl) containing 100 μg/ml ampicillin in a tube (14×10 mm), and the tube was covered with aluminum foil (hereinafter referred to as dark conditions), cultured with shaking at 37° C. under light of fluorescent lamp (about 8000 lux). When the absorbance at 600 nm of the liquid culture medium became about 0.6, isopropyl β-D-thiogalactopyranoside (IPTG) was added to the liquid culture medium so that the final concentration was 0.4 mM, and the culture was continued for about additional 20 hours. […]

Assay [3] relates to E. coli BT3/pACYCSP+pRASSL strain. The assay can be described thus: Growth of E. coli BT3/pACYCSP+pRASSL with herbicidal compound. To be noted: 1 ppm, 18 hours culture, Table 15.
Source text: as §1, with “The strain was inoculated into 1.5 ml LB liquid culture medium (1% tryptone, 0.5% yeast extract, 0.5% NaCl) containing 100 μg/ml ampicillin in a tube (14×10 mm), and the tube was covered with aluminum foil (hereinafter referred to as dark conditions), cultured with shaking at 37° C. under light of fluorescent lamp (about 8000 lux).” left out
These E. coli strains were inoculated into YPT medium containing 1 ppm of the PPO inhibitory-type herbicidal compound represented by Structure 8, 100 μg/ml ampicillin, 15 μg/ml chloramphenicol, 10 μg/ml kanamycin, 10 μg/ml hemin and 50 μg/ml aminolevulinic acid, cultured under dark conditions or light conditions according to the same manner as in Example 2. Then, 18 hours after initiation of culture, the absorbance of liquid culture medium was measured at 600 nm. […]

As to `C#CCOc1cc(N2C(=O)C3=C(CCCC3)C2=O)c(F)cc1Cl` [Structure 8], the Relative absorbance stood at 0.94 in assay [1] (in the dark, 1 ppm); 0.91 in assay [1] (in the dark, 10 ppm); 0.85 in assay [1] (in the light, 1 ppm); 0.33 in assay [1] (in the light, 10 ppm); 0.96 in assay [2] (in the dark); 0.65 in assay [2] (in the light). For the same molecule, the Relative absorbance in assay [3] (in the dark) is reported as 1.0; in assay [3] (in the light) it was 0.59.

Source of the values: patent publication US7973219B2, “Method for producing transgenic plants resistant to weed control compounds which disrupt the porphyrin pathways of plants” (Sumitomo Chemical Company, Limited, priority 1998, dated 2011).
